The test system of series [1] is endotoxin-induced lung disorders. The conditions noted are these: The Course of Medical Science, 1992, 160, No. 4, pp. 257-258; cited from earlier work.
Series [2] has as its target T1, human neutrophil elastase (Homo sapiens, UniProt P08246).
T1 construct: using elastase from human neutrophil or human sputum; from tissue; host or cells: human neutrophil
T1 sequence (P08246 30-247 limits assumed): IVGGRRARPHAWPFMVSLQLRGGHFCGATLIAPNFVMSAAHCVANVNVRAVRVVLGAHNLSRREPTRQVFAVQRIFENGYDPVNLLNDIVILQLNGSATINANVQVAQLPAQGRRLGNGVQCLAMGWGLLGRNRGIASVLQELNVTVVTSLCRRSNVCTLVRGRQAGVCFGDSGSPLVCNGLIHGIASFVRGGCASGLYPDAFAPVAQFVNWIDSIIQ
Kind of series: Inhibitory effect on elastase (human neutrophil), spectrophotometric assay with MeOSuc-Ala-Ala-Pro-Val-pNA. It is filed as biochemical. The conditions noted are these: N: human neutrophil elastase; pH 8.0, 37° C.; read-out: IC50.
Description: (§2) Namely, it is a spectrophotometric assay using the synthesized substrate, methoxysuccinyl-alanyl-alanyl- prolyl-valyl-p-nitroanilide(MeOSuc-Ala-Ala-Pro-Val-pNA, Cambridge research biochemical Co.) which has high specificity on neutrophil elastase.
(§3) 20 μl of a test compound of various concentrations and 20 μl of enzyme solution (13 unit/ml) were added to 400 μl of 0.1M sodium phosphate buffer (pH 8.0). The mixture was incubated at 37° C. for 5 min, and then 20 μl of the substrate was added to the mixture in a final volume of 460 μl. The reaction was conducted by incubating thus obtained mixture at 37° C. for 20 min. The reaction was stopped by the addition of 300 μl of 20% acetic acid into the reaction mixture, and then p-nitroanilide released was measured by the spectrophotometrically at 405 nm.
(§4) Inhibition percents of the test compounds were calculated by the following equation:
(§5) Inhibition %=[1-(OD 405 nm value of the testing sample-background)/(OD 405 nm value of the control-background)]×100

Another series addresses T2, human sputum elastase (Homo sapiens, UniProt P08246).
T2 sequence (P08246 30-247 limits assumed): T1 sequence (P08246 30-247 limits assumed)
Kind of series: Inhibitory effect on elastase (human sputum), spectrophotometric assay with MeOSuc-Ala-Ala-Pro-Val-pNA. It is filed as biochemical. The conditions noted are these: S: human sputum elastase; pH 8.0, 37° C.; read-out: IC50.

Series [3] concerns pancreatic elastase induced acute lung injury in mice. Kind of series: Inhibitory effect on pancreatic elastase induced acute lung injury in mice. It is filed as in vivo, ICR mice. The conditions noted are these: oral 10 mg/Kg at 3.5 hr before and 4.5~5.0 hr after P. elastase (5 μg/site); BAL fluid at 20 hrs. How it is done: ICR mice (25~30 g, .male., n=7~8) were used.
The compound to be evaluated was suspended in 0.5% sodium carboxymethylcellulose-saline.
Oral administration of the test compound was given at 10 mg/Kg at 3. 5 hr before an intratacheal instillation of P. elastase (5 μg/site). After sodium pentobarbital anesthetized, sterile saline containing P. elastase was instilled intratracheally via ventral neck in the throat incisions using a 250 μl syringe attached to a 27-gauge needle.
The throat incisions were closed with surgical suture, and test compounds were administered with the same manner as described above at 4.5~5.0hr after an intratracheal instillation of P. elastase.
At 20 hrs after an intratracheal instillation of P. elastase, animalz were euthanized by an i.p. pentobarbital overdose, each animal trachea was reexposed and the ventral nech region was small incised. A 10 cm length of small-diameter (O.D=0.5 mm) polyethylene catheter inserted and held in place using surgical suture. The lung were then lavaged with 500 μl sterile saline using a 1 ml syringe by gently expanding the lung and then withdrawing the saline.
The same operation was repeated 6 times, yielding in a final volume of 3 ml bronchoalveolar lavage (BAL) fluid from each animal.
The test compounds were evaluated as a inhabitory percent of hemorrhage and leukocyte number in the BAL fluid from each animal.
Operation for hemorrhage and leukocyte number assay;
Red blood cells were bursted with adding 50 μl KCN solution (0.33%) per 1 ml BAL fluid. The amount of blood in each BAL fluid sample was calculated from a hemoglobin standard curve.
(§1) BAL fluid was diluted to 100 fold with a balanced electrolyte solution and KCN solution (0.33%) was added to the diluted BAL fluid for lysis of contaminating red blood cells.
Leukocyte number was determined by the average of the three times count using a particle counter.
Inhibitory effects of the test compounds on hemorrhage and leukocyte infiltration were calculated from the following equation: Inhibitory percent=[1-(The average value of test compound
group)/(The average value of the control group)]×100
The control animals were dosed orally with the same amount of vehicle before and after intratracheal instillation of P. elastase, and it were treated with the same manner as the test compound group.

Series [4] deals with endotoxin induced acute lung injury in mice. Kind of series: Inhibitory effect on endotoxin induced acute lung injury in mice. The conditions noted are these: Mus musculus, oral 10 mg/Kg at 1.5 hr before and 4.5~5.0 hr after LPS (25 μg/site), BAL fluid at 19~20 hrs. It is filed as in vivo, ICR mice. On the procedure:
ICR mice (25~30 g, .male., n=7) were used.
The test compounds were suspended at 0.1% in 0.5% sodium carboxymethylcellulose-saline.
Oral administration of the test compounds were given at 10 mg/Kg at 1.5 hr before an intratracheal instillation of LPS (E.coli, 055:B5, Difico, 25 μg/site). After sodium pentobarbital anesthetized, LPS dissolved in sterile saline was instilled intratracheally via a ventral neck in the throat incisionusing with a 250 μl syringe attached to a 27-gauge needle.
The throat incisions were sutured with surgical threads, and PI-compound was administered with the same mannner as described above 4.5~5.0 hr after LPS instillation.
Up 19~20 hrs after LPS instillation, animals were euthanized by an i.p. pentobarbital overdose, each animal trachea was reexposed and the ventral neck region was small incised.
A 10 cm length of small-diameter (O.D=0.5 mm) polyethylene catheter inserted and held in place using surgical suture. The lung was then lavaged with a single 500 μl sterile saline using a 1 ml syringe by gently expanding the lung and then withdrawing the saline. The same operation was repeated 6 times, yielding a final volume of 3 ml bronchoalveolar lavage (BAL) fluid from each animal.
Evaluation of testing compounds were expressed as inhibitory percent of hemorrhage and leukocyte infiltration in the lung of each animals.
Estimation for hemorrhage:
Red blood cells were bursted with adding 50 μl KCN solution (0.33 %) per 1 ml of BAL fluid, and then the amount of blood in each BAL fluid samples were calculated from a hemoglobin standard curve.
Estimation of leukocyte infiltrations:
as §1
Leukocyte number was determined from the average of the three times count using a particle counter.
The inhibitory effect of testing compounds were calculated from thefollowing equation:
Inhibitory percent=[1-(The average value of the test compound group)/(The
average value of the control group)]×100
The control animals were dosed orally with the same amount of the vehicle before and after intratracheal instillation of LPS and were operated with the same manner as the animals tested with the test compounds.

A short description of series [5]: Cytotoxicity test (MTT, three days). It is filed as cell-based. The conditions noted are these: mouse, l1210 cells, read-out: Survival rate. On the procedure:
L1210 (lymphocytic leukemia, mouse) cells in a logarithmic growth phase were collected and washed twice with HBSS (Hanks' balanced salt solution). The L1210 cells were resuspended at 5.0×10^4 cells/ml in RPMI 1640 medium containing 10% heat-inactivated fetal bovine serum. The cell suspension was dispensed in 100 μl aliquots into 96 well multi-plate. Each of compounds to be tested was dissolved in dimethylsulfoxide at a concentration of 10 mM. The solutions were stepwise diluted with RPMI 1640 solution containing 10% heat-inactivated fetal bovine serum. Each of the diluted samples was dispensed in an amount of 10 μl well in the 96 well multi-plate containing L1210 cells and incubated for three days at 37° C. in humidified 5% CO2 -air mixture. To each of the wells, 10 μl of MTT (3-(4,5-dimethylthiazol-2-yl)-2,5-diphenyltetrazolium bromide)(5 mg/ml in phosphate buffer free of Ca^2+ and Mg^2+) was added. Cultivation was continued for additional five hours at 37° C. in humidified 5% CO2 -air mixture. To each of the wells, 100 μl of 20% SDS (sodium dodecyl sulfate) in 0.01N HCl was added to solubilize the MTT formazan.
Absorbance was measured at 630 nm as a reference wavelength and 570 nm as a measuring wavelength using Corona Electric MTP22 Microplate Photometer. The measurement was conducted three times for each of the samples to obtain an average value and a standard deviation. Survival rate was calculated by the following equation:
Survival rate (5)=[(absorbance of test sample)/(absobance of […]

The mark [6] stands for this setting: Leukocyte, read-out: Inhibitory percent of leukocyte infiltration.
[7] abbreviates: read-out: Inhibitory percent of hemorrhage.

Where two headings read alike, the source gives them in different places.

By IC50 is commonly meant the point on the concentration scale where inhibition reaches its midpoint.

Description for human sputum elastase: as §2, §3, §4, §5

Consider `CC(C)(C)C(=O)Oc1ccc(S(=O)(=O)Nc2ccccc2C(=O)NCC(=O)O)cc1` [ONO-5046], for which, in series [1], the “effect of inhibiting endotoxin-induced lung disorders (in words)” value is recorded as “shows an effect of inhibiting endotoxin-induced lung disorders”.

As to `CN(C)c1ccc(Cn2nnc(-c3ccc(OC(=O)C(C)(C)C)cc3)n2)cc1` [Example 16, 4-[2-[4-(Dimethylamino)benzyl]tetrazol-5-yl]phenyl pivalate], the IC50 was 30 nM in series [2] and 150 nM at human sputum elastase. Further, the “Inhibitory percent of hemorrhage” value in series [3] was 44.0%. For the same compound, in series [3], the “Inhibitory percent of leukocyte infiltration” value is listed as 49.0%. The results for the inhibition in vivo at 10 mg/kg in series [4] (setting [6]) and in series [4] (setting [7]) were 88.2% and 84.9%, respectively. The viability at 72 h, 1 µM in series [5] (final concentration 1 μM) was found to be 94.2%. For the same compound, the viability at 72 h, 5 µM in series [5] (final concentration 5 μM) worked out at 103%. Moreover, in series [5] (final concentration 10 μM), the viability at 72 h, 10 µM came to 104%.

With `CC(C)c1ccc(Cn2nnc(-c3ccc(OC(=O)C(C)(C)C)cc3)n2)cc1` [Example 19, 4-[2-(4-Isopropylbenzyl)tetrazol-5-yl]phenyl pivalate], the IC50 in series [2] turned out to be 42 nM; on human sputum elastase, 510 nM. Besides, the “Inhibitory percent of hemorrhage” value in series [3] worked out at 76.8%. The “Inhibitory percent of leukocyte infiltration” value in series [3] was 14.1%. For the same compound, the inhibition in vivo at 10 mg/kg in series [4] (setting [6]) was determined as 65.6%; in series [4] (setting [7]), 33.8%.

The record behind these values is US5602161A, “Tetrazolylphenyl pivalate derivatives and medicinal composition containing the same as effective component” (Wakamoto Pharmaceutical Co., Ltd., priority 1994, dated 1997).
